In US20220362279A1, “USE OF OLIGONUCLEOTIDES FOR THE TREATMENT AND PREVENTION OF PAIN” (CONSEJO NACIONAL DE INVESTIGACIONES CIENTÍFICAS Y TÉCNICAS, priority 2018, published 2022):
Where a name gives a salt, the structure may show the parent alone.

Key:
[1] = tested on: rats with postsurgical pain (plantar incision); test: Naloxone challenge in IMT504-pre-treated rats with plantar incision, mechanical withdrawal threshold; format: in vivo, rat; conditions: IMT504-treated injured rats; naloxone 2 mg/kg i.p. on day 3 after injury
Procedure: In all experiments, the oligodeoxynucleotide (ODN) IMT504, with sequence 5′-[sequence]-3′ (SEQ ID No 1) was used. The HPLC-grade phosphorothioate ODN (Biosynthesis Inc., Lewisville, Tex., USA) was suspended in sterile saline solution (VEH, 0.9% NaCl; 20 mg/ml; storage concentration) and assayed for LPS contamination. Working concentration doses (6 mg/kg) were obtained by additional dissolving in sterile VEH. The ODN was administered subcutaneously, at a final volume of 200-300 μl, depending on animal weight.
A group of rats also received an intraperitoneal (i.p.) injection of naloxone hydrochloride (Narxona 0.4 mg/ml; Scott-Cassara, Bs. As., Argentina), at a dose of 2 mg/kg, in order to test if the effect of IMT504 could be blocked by the pan-opioid receptor antagonist.
The rat hind paw plantar incision model of postoperative pain was used as previously described [Brennan, T. J., E. P. Vandermeulen, and G. F. Gebhart, Characterization of a rat model of incisional pain. […] Briefly, rats were anesthetized using isoflurane (5% induction, 2.5% maintenance, 0.8 l/min O2 flow rate; Piramal Healthcare, UK) and the plantar aspect of the right hind paw was disinfected with povidone iodine. A 1.0-cm longitudinal incision was made 0.5 cm from the end of the heel. The underlying flexor muscle was also incised longitudinally, allowing the muscle origin and insertion to remain intact. After hemostasis by gentle pressure, the skin was closed with sutures of 5-0 nylon.
Rats were divided into injured rats receiving IMT504 (6 mg/kg, dissolved in VEH) or VEH alone, 48h and 24 h prior to surgery. […]
Mechanical withdrawal thresholds were assessed by using von Frey nylon monofilaments of different bending forces (1.4, 2, 6, 8, 10, 15 and 26 g; Stoelting Inc., Wooddale, USA) and the modified up-down method of Dixon, as described by Chaplan and cols. (Chaplan, S. R., et al., Quantitative assessment of tactile allodynia in the rat paw. J Neurosci Methods, 1994. 53(1): p. 55-63) , to establish the 50% withdrawal threshold. […]

[2] = tested on: rats with postsurgical pain (plantar incision); test: Opioid sparing: morphine in VEH- or IMT504-pre-treated rats with plantar incision, mechanical withdrawal threshold; format: in vivo, rat; conditions: for effect on withdrawal thresholds: VEH-pre-treated injured rats, 6 h and 1 day after injury
Procedure: In all experiments, the oligodeoxynucleotide (ODN) IMT504, with sequence 5′-[…]-3′ (SEQ ID No 1) was used. The HPLC-grade phosphorothioate ODN (Biosynthesis Inc., Lewisville, Tex., USA) was suspended in sterile saline solution (VEH, 0.9% NaCl; 20 mg/ml; storage concentration) and assayed for LPS contamination. Working concentration doses (6 mg/kg) were obtained by additional dissolving in sterile VEH. The ODN was administered subcutaneously, at a final volume of 200-300 μl, depending on animal weight.
Experiments addressing the opioid sparing effects of IMT504 included the subcutaneous (s.c.) injection of morphine hydrochloride trihydrate (Neocalmans, 10 mg/ml, Soubeiran Chobet, Buenos Aires, Argentina) at three different concentrations (1, 3 or 10 mg/kg, dissolved in sterile distilled water).
The rat hind paw plantar incision model of postoperative pain was used as previously described [Brennan, T. J., E. P. Vandermeulen, and G. F. Gebhart, Characterization of a rat model of incisional pain. Pain, 1996. 64(3): p. 493-501. Briefly, rats were anesthetized using isoflurane (5% induction, 2.5% maintenance, 0.8 l/min O2 flow rate; Piramal Healthcare, UK) and the plantar aspect of the right hind paw was disinfected with povidone iodine. A 1.0-cm longitudinal incision was made 0.5 cm from the end of the heel. The underlying flexor muscle was also incised longitudinally, allowing the muscle origin and insertion to remain intact. After hemostasis by gentle pressure, the skin was closed with sutures of 5-0 nylon.
Rats were divided into injured rats receiving IMT504 (6 mg/kg, dissolved in VEH) or VEH alone, 48h and 24 h prior to surgery. These groups were further subdivided into: 1) Rats followed during 3 days after the injury (n=6 per group), for assessment of pain-like behavior after the co-administration of morphine dissolved in injectable water (vehicle) at different doses, 6 and 24 h after injury; 2) Rats followed during 3 days after the injury (n=6 per group), for assessment of pain-like behavior after the co-administration of injectable water (vehicle) alone, 6 and 24 h after injury; 3) Rats followed during 21 days (n=8), for analysis of the administration of naloxone, 3 days after injury.
Mechanical withdrawal thresholds were assessed by using von Frey nylon monofilaments of different bending forces (1.4, 2, 6, 8, 10, 15 and 26 g; Stoelting Inc., Wooddale, USA) and the modified up-down method of Dixon, as described by Chaplan and cols. (Chaplan, S. R., et al., Quantitative assessment of tactile allodynia in the rat paw. J Neurosci Methods, 1994. 53(1): p. 55-63) , to establish the 50% withdrawal threshold. Results were obtained using the formula: 50% g threshold=[…], where Xf=value (in log units) of the final von Frey hair used; k=tabular value for the pattern of positive/negative responses; and […] difference (in log units) between stimuli. Mechanical withdrawal thresholds were tested 48 h before surgery (basal responses), and 6 h, 1, 3, 7, 14 and 21 days after injury.
A dose-response experiment to evaluate the effect of the s.c. administration of morphine at different doses (10, 3 and 1 mg/kg), 6 h or 1 day after injury, in VEH- or IMT504-treated rats (time-points were chosen based on the fact that a certain degree of mechanical withdrawal threshold alterations was still present in IMT504-treated rats was done, which allowed to test if within this therapeutic window, it was possible to fully revert pain-like behavior using smaller morphine doses). […]

Structure (SMILES)	withdrawal threshold 15 and 30 min after naloxone [1]	time after injection free of pain-like behavior ([2]; VEH rats receiving 10 mg morphine)	time after administration with fully reversed pain-like behavior ([2]; VEH rats receiving 1 or 3 mg morphine, both time-points)	effect on withdrawal thresholds ([2]; morphine 10 mg/kg s.c.)	effect on withdrawal thresholds ([2]; morphine 3 and 1 mg/kg s.c.)
C=CCN1CC[C@]23c4c5ccc(O)c4O[C@H]2C(=O)CC[C@@]3(O)[C@H]1C5 [naloxone, naloxone hydrochloride, reference compound]	drastic and significant decrease in their withdrawal threshold	–	–	–	–
CN1CC[C@]23c4c5ccc(O)c4O[C@H]2[C@@H](O)C=C[C@H]3[C@H]1C5.Cl.O.O.O [morphine, morphine hydrochloride trihydrate, reference compound]	–	90 to 180 min	60 min	very effective in increasing withdrawal thresholds	milder and comparable effects
